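Results reflect a 48-hour exposure of cells in 96-well plates to compound at five concentrations. Here, GI50 denotes the concentration required for 50% inhibition of growth.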 Activity calls are given as the source filed them. No stated cut-off is given here; in the data, active = GI50 up to about 1.1 µM and inactive = higher.
Legend:
Assay in all cases: DTP human tumour cell line panel, 48 h
RXF 393 = test system: RXF 393
NCI/ADR-RES = test system: NCI/ADR-RES
UACC-62 = test system: UACC-62
OVCAR-4 = test system: OVCAR-4
SK-MEL-28 = test system: SK-MEL-28
SF-295 = test system: SF-295
SNB-75 = test system: SNB-75
UACC-257 = test system: UACC-257
HCT-116 = test system: HCT-116
MDA-MB-435 = test system: MDA-MB-435
A498 = test system: A498
Malme-3M = test system: Malme-3M
Hs-578T = test system: Hs-578T
IGROV-1 = test system: IGROV-1
NCI-H226 = test system: NCI-H226
SK-MEL-5 = test system: SK-MEL-5
T47D = test system: T47D
U-251 = test system: U-251
ACHN = test system: ACHN
CCRF-CEM = test system: CCRF-CEM

Row | Structure (SMILES) | GI50 (RXF 393) | GI50 (NCI/ADR-RES) | GI50 (UACC-62) | GI50 (OVCAR-4) | GI50 (SK-MEL-28) | GI50 (SF-295) | GI50 (SNB-75) | GI50 (UACC-257) | GI50 (HCT-116) | GI50 (MDA-MB-435) | GI50 (A498) | GI50 (Malme-3M) | GI50 (Hs-578T) | GI50 (IGROV-1) | GI50 (NCI-H226) | GI50 (SK-MEL-5) | GI50 (T47D) | GI50 (U-251) | GI50 (ACHN) | GI50 (CCRF-CEM)
1 | CN(C)C=O.O=C(Nc1nnn[nH]1)c1nc(O)cc(-c2ccccc2)n1 | > 100 µM (inactive) | > 100 µM (inactive) | > 100 µM (inactive) | > 100 µM (inactive) | > 100 µM (inactive) | > 100 µM (inactive) | > 100 µM (inactive) | > 100 µM (inactive) | > 100 µM (inactive) | > 100 µM (inactive) | > 100 µM (inactive) | > 100 µM (inactive) | > 100 µM (inactive) | > 100 µM (inactive) | > 100 µM (inactive) | > 100 µM (inactive) | > 100 µM (inactive) | > 100 µM (inactive) | > 100 µM (inactive) | –
2 | CCCCC1C=Cn2c(=O)oc3c(OC(C)C)c(C)c(O)c1c32 (centres undefined) | – | 0.993 µM (active) | 0.929 µM (active) | 0.601 µM (active) | 1.19 µM (inactive) | 0.982 µM (active) | 0.466 µM (active) | 2.44 µM (inactive) | 0.977 µM (active) | 1.33 µM (inactive) | 0.0423 µM (active) | 1.47 µM (inactive) | 0.684 µM (active) | 1.88 µM (inactive) | 1.63 µM (inactive) | 2 µM (inactive) | 1.85 µM (inactive) | 1.14 µM (inactive) | 0.413 µM (active) | 1.68 µM (inactive)
3 | COc1cc(/C=C2\N=C(c3ccccc3)N(c3nc4ccc(Sc5ccccc5)cc4[nH]3)C2=O)cc(OC)c1OC | 22.1 µM (inactive) | 20.4 µM (inactive) | 15.4 µM (inactive) | 41.1 µM (inactive) | 24 µM (inactive) | 23.6 µM (inactive) | 17.4 µM (inactive) | 19.6 µM (inactive) | 20.7 µM (inactive) | 5.19 µM (inactive) | 22 µM (inactive) | 16.9 µM (inactive) | 30.8 µM (inactive) | 45.4 µM (inactive) | – | 13.2 µM (inactive) | 17.9 µM (inactive) | 18.3 µM (inactive) | 22.9 µM (inactive) | 27.1 µM (inactive)
4 | O=S1(=O)OCCCOS(=O)(=O)C1(Br)Br | > 100 µM (inactive) | > 100 µM (inactive) | > 100 µM (inactive) | > 100 µM (inactive) | > 100 µM (inactive) | > 100 µM (inactive) | > 100 µM (inactive) | > 100 µM (inactive) | > 100 µM (inactive) | > 100 µM (inactive) | – | > 100 µM (inactive) | 62.2 µM (inactive) | – | > 100 µM (inactive) | > 100 µM (inactive) | > 100 µM (inactive) | > 100 µM (inactive) | > 100 µM (inactive) | > 100 µM (inactive)
5 | COc1ccc(C2CC(=O)Oc3ccccc3O2)cc1 (centres undefined) | > 100 µM (inactive) | > 100 µM (inactive) | > 100 µM (inactive) | > 100 µM (inactive) | > 100 µM (inactive) | > 100 µM (inactive) | > 100 µM (inactive) | > 100 µM (inactive) | > 100 µM (inactive) | 70.5 µM (inactive) | – | – | 66.7 µM (inactive) | > 100 µM (inactive) | > 100 µM (inactive) | > 100 µM (inactive) | > 100 µM (inactive) | > 100 µM (inactive) | > 100 µM (inactive) | 52.8 µM (inactive)
6 | O=C1/C(=C\c2cccc(Oc3ccccc3)c2)SC(c2ccccc2)N1c1cccc(Cl)c1 (centres undefined) | 64.1 µM (inactive) | > 100 µM (inactive) | > 100 µM (inactive) | > 100 µM (inactive) | > 100 µM (inactive) | > 100 µM (inactive) | – | > 100 µM (inactive) | > 100 µM (inactive) | 92.7 µM (inactive) | > 100 µM (inactive) | > 100 µM (inactive) | > 100 µM (inactive) | – | > 100 µM (inactive) | > 100 µM (inactive) | > 100 µM (inactive) | > 100 µM (inactive) | > 100 µM (inactive) | –
7 | CC/C(=C\c1ccc(Cl)c(Cl)c1)[N+](=O)[O-] | – | 2.27 µM (inactive) | 1.93 µM (inactive) | 3 µM (inactive) | 2.06 µM (inactive) | 2.04 µM (inactive) | 3.84 µM (inactive) | 1.94 µM (inactive) | 3.66 µM (inactive) | 1.71 µM (inactive) | 8.18 µM (inactive) | 1.92 µM (inactive) | 3.48 µM (inactive) | 1.64 µM (inactive) | 2.23 µM (inactive) | 1.97 µM (inactive) | 2.93 µM (inactive) | 1.86 µM (inactive) | 1.75 µM (inactive) | –
8 | COC(=O)c1ccc(Nc2nc3[nH]cnc3c(=O)[nH]2)cc1 | – | > 100 µM (inactive) | > 100 µM (inactive) | > 100 µM (inactive) | > 100 µM (inactive) | > 100 µM (inactive) | > 100 µM (inactive) | > 100 µM (inactive) | > 100 µM (inactive) | 51.9 µM (inactive) | > 100 µM (inactive) | > 100 µM (inactive) | > 100 µM (inactive) | > 100 µM (inactive) | > 100 µM (inactive) | > 100 µM (inactive) | 69 µM (inactive) | > 100 µM (inactive) | > 100 µM (inactive) | > 100 µM (inactive)
9 | CCCCCCCCCCCCOCC1(COCCCCCCCCCCCC)COC(c2ccc(N)cc2)OC1 | – | > 100 µM (inactive) | > 100 µM (inactive) | > 100 µM (inactive) | > 100 µM (inactive) | > 100 µM (inactive) | > 100 µM (inactive) | > 100 µM (inactive) | > 100 µM (inactive) | > 100 µM (inactive) | > 100 µM (inactive) | > 100 µM (inactive) | > 100 µM (inactive) | > 100 µM (inactive) | > 100 µM (inactive) | > 100 µM (inactive) | > 100 µM (inactive) | > 100 µM (inactive) | > 100 µM (inactive) | –
10 | CN(C)CCN1C(=O)N(CCN(C)C)c2c3cc(O)ccc3nc3c([N+](=O)[O-])ccc1c23 | – | 19.4 µM (inactive) | 15.9 µM (inactive) | 9.66 µM (inactive) | 25.3 µM (inactive) | – | 19.1 µM (inactive) | 15.3 µM (inactive) | 5.58 µM (inactive) | 14.8 µM (inactive) | 15.7 µM (inactive) | 15.8 µM (inactive) | 16.9 µM (inactive) | 2.81 µM (inactive) | 12.6 µM (inactive) | 13.7 µM (inactive) | 18.4 µM (inactive) | 9.93 µM (inactive) | 6.22 µM (inactive) | 0.538 µM (active)
11 | CC1(O)CC(C(F)(F)F)(C(F)(F)F)OC1=O (centres undefined) | – | > 10 µM (inactive) | > 10 µM (inactive) | > 10 µM (inactive) | > 10 µM (inactive) | > 10 µM (inactive) | – | > 10 µM (inactive) | > 10 µM (inactive) | > 10 µM (inactive) | > 10 µM (inactive) | > 10 µM (inactive) | > 10 µM (inactive) | > 10 µM (inactive) | > 10 µM (inactive) | > 10 µM (inactive) | > 10 µM (inactive) | > 10 µM (inactive) | > 10 µM (inactive) | > 10 µM (inactive)
12 | CCc1cc(O)c(Cl)c(C)c1Cl | 14.1 µM (inactive) | 21.7 µM (inactive) | 15.1 µM (inactive) | 15.1 µM (inactive) | 19.5 µM (inactive) | 20 µM (inactive) | 18.9 µM (inactive) | 17.2 µM (inactive) | 16.1 µM (inactive) | 16.4 µM (inactive) | 13 µM (inactive) | 19.4 µM (inactive) | 17.8 µM (inactive) | 18.6 µM (inactive) | – | 17.5 µM (inactive) | 28.7 µM (inactive) | 18 µM (inactive) | 15.7 µM (inactive) | 18.2 µM (inactive)
13 | COC(=O)C(CC(C)C)NC(=O)C(NC(=O)c1ccc(-c2ccc(Cl)cc2Cl)o1)C(C)C (centres undefined) | 14.8 µM (inactive) | 18.7 µM (inactive) | 13.1 µM (inactive) | 24.9 µM (inactive) | 33.4 µM (inactive) | 16.2 µM (inactive) | 23.9 µM (inactive) | 17.1 µM (inactive) | 12.3 µM (inactive) | 22.1 µM (inactive) | – | – | 27.5 µM (inactive) | 18.7 µM (inactive) | 32.4 µM (inactive) | 20.3 µM (inactive) | 15.3 µM (inactive) | 17.9 µM (inactive) | 20.8 µM (inactive) | 12.2 µM (inactive)
14 | C=CC1ON(Cc2ccccc2)CCc2cc(OC)c(OC)cc21 (centres undefined) | – | 45.5 µM (inactive) | 56.1 µM (inactive) | – | 36.9 µM (inactive) | 31.7 µM (inactive) | 72.4 µM (inactive) | 52.6 µM (inactive) | 45.2 µM (inactive) | 24.5 µM (inactive) | 15.2 µM (inactive) | 19.2 µM (inactive) | > 100 µM (inactive) | 78 µM (inactive) | > 100 µM (inactive) | 16.1 µM (inactive) | 27.7 µM (inactive) | 66.5 µM (inactive) | > 100 µM (inactive) | 45.7 µM (inactive)
15 | CC1=CCC(=O)[C@]2(C)C(CC(=O)O)[C@]3(C)C4=C(C)C(c5ccoc5)C[C@@H]4O[C@@H]3[C@H](O)[C@@H]12 (some centres undefined) | – | > 100 µM (inactive) | > 100 µM (inactive) | > 100 µM (inactive) | > 100 µM (inactive) | > 100 µM (inactive) | > 100 µM (inactive) | > 100 µM (inactive) | > 100 µM (inactive) | > 100 µM (inactive) | > 100 µM (inactive) | > 100 µM (inactive) | > 100 µM (inactive) | > 100 µM (inactive) | – | > 100 µM (inactive) | > 100 µM (inactive) | > 100 µM (inactive) | > 100 µM (inactive) | > 100 µM (inactive)

From ChEMBL document CHEMBL1201862, “PubChem BioAssay data set” (2004)
